# From ChEMBL document CHEMBL3351422, “Discovery of N-substituted 7-azaindoline derivatives as potent, orally available M1 and M4 muscarinic acetylcholine receptors selective agonists” (Bioorg Med Chem Lett, 2014)
# Key:
# [1] = target: Sigma non-opioid intracellular receptor 1 (Homo sapiens) (UniProt Q99720); assay: Inhibition of human sigma1 receptor at 3 uM by radioligand binding assay
# hERG (KCNH2) = hERG (KCNH2) (Homo sapiens, UniProt Q12809); assay: Inhibition of human ERG channel at 3 uM by radioligand binding assay
# Sequence of hERG (KCNH2) (Q12809 whole entry): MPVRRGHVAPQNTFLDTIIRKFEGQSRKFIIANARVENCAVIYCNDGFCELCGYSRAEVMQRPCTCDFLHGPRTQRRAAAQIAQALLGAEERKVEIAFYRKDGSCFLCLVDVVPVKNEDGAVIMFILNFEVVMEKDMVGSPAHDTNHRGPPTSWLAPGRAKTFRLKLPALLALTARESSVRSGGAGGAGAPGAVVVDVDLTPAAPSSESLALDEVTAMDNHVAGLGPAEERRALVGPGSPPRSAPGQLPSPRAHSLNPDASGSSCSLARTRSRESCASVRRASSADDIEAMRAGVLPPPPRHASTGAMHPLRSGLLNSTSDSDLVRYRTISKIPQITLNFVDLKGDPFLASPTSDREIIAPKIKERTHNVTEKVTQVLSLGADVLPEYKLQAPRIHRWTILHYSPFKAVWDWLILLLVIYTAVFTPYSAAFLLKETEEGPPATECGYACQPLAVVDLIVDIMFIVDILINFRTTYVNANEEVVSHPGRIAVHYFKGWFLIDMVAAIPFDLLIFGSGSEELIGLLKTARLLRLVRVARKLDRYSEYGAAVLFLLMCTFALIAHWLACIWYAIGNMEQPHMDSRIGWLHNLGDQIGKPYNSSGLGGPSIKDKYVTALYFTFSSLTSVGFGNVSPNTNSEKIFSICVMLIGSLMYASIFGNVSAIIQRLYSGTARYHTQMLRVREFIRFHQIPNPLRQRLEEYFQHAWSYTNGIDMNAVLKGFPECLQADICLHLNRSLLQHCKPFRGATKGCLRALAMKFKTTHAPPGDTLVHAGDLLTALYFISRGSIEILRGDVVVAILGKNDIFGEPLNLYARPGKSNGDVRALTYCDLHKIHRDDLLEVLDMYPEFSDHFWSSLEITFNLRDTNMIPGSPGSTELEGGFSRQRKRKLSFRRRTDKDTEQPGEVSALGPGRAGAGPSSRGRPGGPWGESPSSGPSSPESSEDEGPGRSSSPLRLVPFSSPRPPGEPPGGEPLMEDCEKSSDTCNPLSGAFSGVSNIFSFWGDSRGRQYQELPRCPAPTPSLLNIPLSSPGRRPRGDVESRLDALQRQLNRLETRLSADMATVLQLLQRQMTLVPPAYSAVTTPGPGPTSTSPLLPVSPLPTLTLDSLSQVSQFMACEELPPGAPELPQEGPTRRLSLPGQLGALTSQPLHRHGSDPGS
# Oryctolagus cuniculus = organism: Oryctolagus cuniculus; assay: Inhibition of rabbit purinergic P2X receptor at 3 uM by radioligand binding assay
# Rattus norvegicus [2] = organism: Rattus norvegicus; assay: Displacement of [125I]alpha-bungarotoxin from rat nicotinic acetylcholine receptor at 3 uM by radioligand binding assay
# Rattus norvegicus [3] = assay: Antipsychotic-like effect in po dosed rat assessed as methamphetamine-induced locomotor hyperactivity; type: functional
# [4] = target: Cannabinoid receptor 1 (Homo sapiens) (UniProt P21554); assay: Inhibition of human CB1 receptor at 3 uM by radioligand binding assay
# [5] = Oral bioavailability in dog at 1 mg/kg; type: ADME, organism-based, Canis lupus familiaris; conditions: in vivo
# [6] = Cmax in monkey at 0.25 mg/kg, iv and 2.5 mg/kg, po; type: ADME, organism-based, Macaca mulatta; conditions: rhesus monkey, in vivo
# [7] = target: Muscarinic acetylcholine receptor M3 (Homo sapiens) (UniProt P20309); assay: Agonist activity at muscarinic M3 receptor (unknown origin) at 0.3 uM by calcium mobilization assay; type: functional
# Sequence of Muscarinic acetylcholine receptor M3 (Homo sapiens) (P20309 whole entry, looked up): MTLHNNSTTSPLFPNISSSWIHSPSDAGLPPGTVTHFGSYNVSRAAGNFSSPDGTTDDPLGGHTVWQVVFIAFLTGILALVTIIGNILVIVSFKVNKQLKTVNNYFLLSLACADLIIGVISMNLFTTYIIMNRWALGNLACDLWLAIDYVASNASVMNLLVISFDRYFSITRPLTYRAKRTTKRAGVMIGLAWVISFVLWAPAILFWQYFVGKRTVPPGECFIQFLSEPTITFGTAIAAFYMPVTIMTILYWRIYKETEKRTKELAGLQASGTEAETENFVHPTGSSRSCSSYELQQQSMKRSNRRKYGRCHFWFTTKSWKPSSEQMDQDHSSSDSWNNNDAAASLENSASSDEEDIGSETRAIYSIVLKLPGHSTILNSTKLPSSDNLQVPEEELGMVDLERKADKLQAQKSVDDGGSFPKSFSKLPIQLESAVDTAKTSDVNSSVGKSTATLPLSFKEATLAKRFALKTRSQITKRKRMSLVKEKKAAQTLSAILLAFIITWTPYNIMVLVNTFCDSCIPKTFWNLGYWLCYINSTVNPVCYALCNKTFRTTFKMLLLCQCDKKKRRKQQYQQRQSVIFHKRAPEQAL
# [8] = target: T1, Muscarinic acetylcholine receptor M1 (Homo sapiens) (UniProt P11229); assay: Intrinsic activity at muscarinic M1 receptor (unknown origin) by calcium mobilization assay; type: functional
# T1 sequence (whole entry): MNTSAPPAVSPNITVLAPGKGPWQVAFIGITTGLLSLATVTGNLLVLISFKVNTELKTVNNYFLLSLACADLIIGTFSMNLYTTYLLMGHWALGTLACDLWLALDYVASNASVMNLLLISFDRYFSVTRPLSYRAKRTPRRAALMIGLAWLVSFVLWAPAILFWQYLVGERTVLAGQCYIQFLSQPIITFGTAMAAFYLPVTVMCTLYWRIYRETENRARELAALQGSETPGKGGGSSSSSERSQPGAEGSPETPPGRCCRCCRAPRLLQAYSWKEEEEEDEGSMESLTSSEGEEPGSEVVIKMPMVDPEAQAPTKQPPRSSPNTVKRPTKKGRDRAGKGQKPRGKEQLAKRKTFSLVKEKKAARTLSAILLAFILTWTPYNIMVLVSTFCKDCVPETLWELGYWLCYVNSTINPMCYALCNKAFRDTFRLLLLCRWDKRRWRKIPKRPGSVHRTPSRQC
# [9] = target: Glutamate NMDA receptor (Rattus norvegicus) (UniProt P35439+Q00959+Q00960+Q00961+Q62645+Q8VHN2+Q9R1M7); assay: Inhibition of rat NMDA receptor phencyclidine binding site at 3 uM by radioligand binding assay; type: protein-complex assay
# [10] = target: 5-hydroxytryptamine receptor 2B (Homo sapiens) (UniProt P41595); assay: Inhibition of human 5-HT2B receptor at 3 uM by radioligand binding assay
# Sequence of 5-hydroxytryptamine receptor 2B (Homo sapiens) (P41595 whole entry): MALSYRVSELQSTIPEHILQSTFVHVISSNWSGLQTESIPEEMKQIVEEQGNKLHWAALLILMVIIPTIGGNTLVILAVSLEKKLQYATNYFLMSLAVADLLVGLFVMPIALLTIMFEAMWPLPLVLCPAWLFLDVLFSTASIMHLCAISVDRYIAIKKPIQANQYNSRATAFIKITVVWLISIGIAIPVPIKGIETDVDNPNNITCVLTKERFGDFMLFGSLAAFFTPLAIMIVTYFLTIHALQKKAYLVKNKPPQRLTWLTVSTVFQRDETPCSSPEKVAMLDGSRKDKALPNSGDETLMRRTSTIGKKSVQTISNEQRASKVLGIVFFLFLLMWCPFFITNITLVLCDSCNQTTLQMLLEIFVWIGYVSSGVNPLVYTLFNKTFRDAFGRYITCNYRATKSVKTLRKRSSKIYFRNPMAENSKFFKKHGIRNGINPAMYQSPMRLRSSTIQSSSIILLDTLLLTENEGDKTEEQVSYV
# [11] = target: Alpha-1D adrenergic receptor (Homo sapiens) (UniProt P25100); assay: Inhibition of human alpha1D adrenergic receptor at 3 uM by radioligand binding assay
# Sequence of Alpha-1D adrenergic receptor (Homo sapiens) (P25100 whole entry): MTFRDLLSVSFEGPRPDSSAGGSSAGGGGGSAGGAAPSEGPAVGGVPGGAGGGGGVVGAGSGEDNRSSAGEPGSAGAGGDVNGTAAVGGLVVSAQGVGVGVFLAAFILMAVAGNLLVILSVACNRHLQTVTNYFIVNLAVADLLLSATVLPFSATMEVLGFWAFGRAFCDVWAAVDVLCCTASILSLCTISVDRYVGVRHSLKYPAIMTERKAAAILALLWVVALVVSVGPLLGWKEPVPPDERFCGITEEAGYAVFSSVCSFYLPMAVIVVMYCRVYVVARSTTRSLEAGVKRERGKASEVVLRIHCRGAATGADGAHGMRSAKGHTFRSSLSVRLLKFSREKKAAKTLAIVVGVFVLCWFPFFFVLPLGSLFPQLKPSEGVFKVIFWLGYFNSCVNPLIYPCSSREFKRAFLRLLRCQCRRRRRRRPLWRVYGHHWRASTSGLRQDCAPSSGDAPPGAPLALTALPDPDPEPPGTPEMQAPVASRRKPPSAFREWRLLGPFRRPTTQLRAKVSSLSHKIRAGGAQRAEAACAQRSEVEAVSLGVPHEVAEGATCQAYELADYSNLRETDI
# [12] = Oral bioavailability in monkey at 2.5 mg/kg; type: ADME, organism-based, Macaca mulatta; conditions: rhesus monkey, in vivo
# [13] = Blood brain barrier penetration in rat at 0.25 mg/kg, iv and 2.5 mg/kg, po; type: ADME, organism-based
# [14] = target: T2, Muscarinic acetylcholine receptor M5 (Homo sapiens) (UniProt P08912); assay: Intrinsic activity at muscarinic M5 receptor (unknown origin) at 10 uM by calcium mobilization assay; type: functional
# T2 sequence (whole entry): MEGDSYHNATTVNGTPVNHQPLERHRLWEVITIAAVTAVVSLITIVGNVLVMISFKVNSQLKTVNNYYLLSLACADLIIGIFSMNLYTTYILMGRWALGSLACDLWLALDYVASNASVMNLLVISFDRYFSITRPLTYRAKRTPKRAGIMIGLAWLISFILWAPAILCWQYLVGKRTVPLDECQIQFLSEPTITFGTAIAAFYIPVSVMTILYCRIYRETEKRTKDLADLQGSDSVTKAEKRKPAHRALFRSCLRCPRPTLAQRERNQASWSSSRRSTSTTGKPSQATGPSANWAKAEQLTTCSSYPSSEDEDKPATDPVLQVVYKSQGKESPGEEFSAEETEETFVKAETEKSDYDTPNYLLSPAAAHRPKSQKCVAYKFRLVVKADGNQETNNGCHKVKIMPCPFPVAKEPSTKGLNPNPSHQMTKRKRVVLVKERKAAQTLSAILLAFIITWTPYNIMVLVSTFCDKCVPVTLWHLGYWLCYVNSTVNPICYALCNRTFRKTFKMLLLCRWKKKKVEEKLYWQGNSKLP
# [15] = target: Glucocorticoid receptor (Homo sapiens) (UniProt P04150); assay: Inhibition of human glucocortlicoid receptor at 3 uM by radioligand binding assay
# Sequence of Glucocorticoid receptor (Homo sapiens) (P04150 whole entry): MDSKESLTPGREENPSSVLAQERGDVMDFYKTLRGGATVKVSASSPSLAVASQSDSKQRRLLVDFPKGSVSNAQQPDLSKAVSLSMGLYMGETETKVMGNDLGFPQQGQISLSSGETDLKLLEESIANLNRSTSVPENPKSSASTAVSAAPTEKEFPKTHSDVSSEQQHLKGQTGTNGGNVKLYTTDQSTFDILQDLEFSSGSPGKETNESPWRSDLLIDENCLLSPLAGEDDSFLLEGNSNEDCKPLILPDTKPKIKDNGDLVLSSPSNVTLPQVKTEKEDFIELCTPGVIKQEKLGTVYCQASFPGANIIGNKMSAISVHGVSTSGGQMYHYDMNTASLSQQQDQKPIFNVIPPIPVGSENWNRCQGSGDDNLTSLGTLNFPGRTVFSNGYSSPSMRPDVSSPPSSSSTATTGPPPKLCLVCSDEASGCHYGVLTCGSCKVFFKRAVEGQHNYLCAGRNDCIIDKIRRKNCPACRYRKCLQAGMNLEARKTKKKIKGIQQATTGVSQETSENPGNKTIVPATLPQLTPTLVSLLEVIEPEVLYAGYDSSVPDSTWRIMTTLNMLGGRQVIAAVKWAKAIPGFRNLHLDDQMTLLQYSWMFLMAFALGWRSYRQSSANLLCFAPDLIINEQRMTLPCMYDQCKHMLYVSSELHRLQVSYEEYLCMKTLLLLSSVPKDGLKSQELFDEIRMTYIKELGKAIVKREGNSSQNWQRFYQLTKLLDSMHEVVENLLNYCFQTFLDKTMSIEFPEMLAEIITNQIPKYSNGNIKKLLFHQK
# [16] = target: Endothelin-1 receptor (Homo sapiens) (UniProt P25101); assay: Inhibition of human ETA receptor at 3 uM by radioligand binding assay
# Sequence of Endothelin-1 receptor (Homo sapiens) (P25101 whole entry): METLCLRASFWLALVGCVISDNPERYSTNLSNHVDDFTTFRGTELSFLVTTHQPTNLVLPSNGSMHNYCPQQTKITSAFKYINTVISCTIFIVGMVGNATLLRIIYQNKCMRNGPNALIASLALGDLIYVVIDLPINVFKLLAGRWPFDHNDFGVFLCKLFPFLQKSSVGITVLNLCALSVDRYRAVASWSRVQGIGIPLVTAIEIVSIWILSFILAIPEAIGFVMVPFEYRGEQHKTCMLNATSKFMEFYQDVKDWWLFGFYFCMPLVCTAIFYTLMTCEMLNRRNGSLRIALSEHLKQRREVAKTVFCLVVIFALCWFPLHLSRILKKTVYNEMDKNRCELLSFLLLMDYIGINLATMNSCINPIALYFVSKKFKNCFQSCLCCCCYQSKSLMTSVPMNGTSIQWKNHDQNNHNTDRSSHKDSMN
# [17] = target: Adenosine receptor A3 (Homo sapiens) (UniProt P0DMS8); assay: Inhibition of human adenosine A3 receptor at 3 uM by radioligand binding assay
# [18] = target: Acetylcholinesterase (Homo sapiens) (UniProt P22303); assay: Inhibition of human acetylcholinesterase at 3 uM by radioligand binding assay
# [19] = target: Sodium-dependent serotonin transporter (Homo sapiens) (UniProt P31645); assay: Inhibition of human SERT at 3 uM by radioligand binding assay
# Sequence of Sodium-dependent serotonin transporter (Homo sapiens) (P31645 whole entry, looked up): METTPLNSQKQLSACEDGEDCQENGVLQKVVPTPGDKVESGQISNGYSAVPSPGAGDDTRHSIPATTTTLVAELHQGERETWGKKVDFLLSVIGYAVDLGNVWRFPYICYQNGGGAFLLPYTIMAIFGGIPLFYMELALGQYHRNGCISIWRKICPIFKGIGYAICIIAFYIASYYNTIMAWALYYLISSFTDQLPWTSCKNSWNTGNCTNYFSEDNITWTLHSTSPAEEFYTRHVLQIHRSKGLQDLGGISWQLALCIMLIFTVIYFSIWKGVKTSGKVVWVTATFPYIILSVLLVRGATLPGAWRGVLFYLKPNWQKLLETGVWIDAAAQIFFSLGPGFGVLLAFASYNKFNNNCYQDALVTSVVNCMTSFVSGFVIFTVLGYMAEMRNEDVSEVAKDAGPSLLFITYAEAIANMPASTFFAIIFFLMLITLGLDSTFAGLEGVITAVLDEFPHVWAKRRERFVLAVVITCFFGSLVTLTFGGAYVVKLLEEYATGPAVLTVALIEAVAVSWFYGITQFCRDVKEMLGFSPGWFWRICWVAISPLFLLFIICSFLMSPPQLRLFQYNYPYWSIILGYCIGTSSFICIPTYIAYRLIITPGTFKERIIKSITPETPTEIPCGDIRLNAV
# Rattus norvegicus [20] = organism: Rattus norvegicus; assay: Inhibition of rat Rolipram binding site at 3 uM by radioligand binding assay
# Sequence of Sigma non-opioid intracellular receptor 1 (Homo sapiens) (Q99720 whole entry): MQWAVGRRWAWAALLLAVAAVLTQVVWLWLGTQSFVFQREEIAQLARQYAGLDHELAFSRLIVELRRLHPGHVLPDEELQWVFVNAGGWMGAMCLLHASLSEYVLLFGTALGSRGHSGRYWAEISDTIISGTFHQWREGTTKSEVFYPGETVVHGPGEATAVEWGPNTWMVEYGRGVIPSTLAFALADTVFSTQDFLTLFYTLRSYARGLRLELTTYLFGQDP
smiles,measurement,setting,value
CCOC(=O)N1CCC(CN2CCC3(CC2)CN(C(=O)N(C)C)c2ncccc23)CC1.O=C(O)/C=C/C(=O)O,inhibition,[1],57%
same,inhibition at 3 µM,hERG (KCNH2),0%
same,inhibition,Oryctolagus cuniculus,3%
same,inhibition,Rattus norvegicus [2],7%
same,ED50,Rattus norvegicus [3],1.44 mg/kg
same,inhibition,[4],11%
same,bioavailability,[5],49.3%
same,Cmax,[6],30.7 ng/mL
same,Activity,[7],2%
same,Intrinsic activity,[8],76%
same,inhibition,[9],0%
same,inhibition,[10],11%
same,inhibition,[11],10%
same,bioavailability,[12],39.8%
same,Kp,[13],0.7
same,Intrinsic activity,[14],11%
same,inhibition,[15],15%
same,inhibition,[16],10%
same,inhibition,[17],-8%
same,inhibition,[18],5%
same,inhibition,[19],3%
same,inhibition,Rattus norvegicus [20],16%
